Test results reported in patent US9127078B2, “Methods and compositions using splicing regulatory proteins involved in tumor suppression” (The Trustees of the University of Pennsylvania, priority 2008, dated 2015).

System: PKC-neg-40B-Luc minigene in 293T cells
Assay: Luciferase splicing reporter screen of the LOPAC 1280 library
Format: cell-based
Details: for Avg Med norm: luciferase fold-increase over the Average Median norm for each plate exclusive of Esrp1 control wells; for Avg Med norm / Avg DMSO Norm: 293T reporter cells, 24 hours; for Avg DMSO Norm: luciferase fold-increase over the Average control (DMSO) norm; for luciferase readings versus background reading: LOPAC screen, result in words
Description: Briefly, compounds from the LOPAC™ library were dissolved in DMSO. 293T cells (which express predominantly FGFR2-IIIc) which stably express the PKC-neg-40B-Luc minigene, as described in Example 1, were incubated with the compounds or with a DMSO control for 24 hours. After the incubation period, BriteLite luciferase readout reagent was added to each well and the plates were read on an Analyst HT multimode plate reader (Molecular Devices). As positive controls, we also added a cDNA encoding the mouse Esrp1 protein to individual wells on each plate.
The results were then ranked in order from largest fold change over background down to the DMSO blank.

Row | Structure (SMILES) | Avg Med norm [fold] | Avg DMSO Norm [fold] | luciferase readings versus background reading
1 | CNCC(O)c1ccc(O)c(O)c1.Cl (racemic) [(±)-Epinephrine hydrochloride] | 1.714 | 1.674 | 
2 | CC(C)NCC(O)c1ccc(O)c(O)c1.Cl (racemic) [(±)-Isoproterenol hydrochloride] | 1.713 | 1.663 | 
3 | NC(N)=NC(=O)c1nc(Cl)c(N2CCCCCC2)nc1N [5-(N,N-hexamethylene)amiloride] | 1.643 | 1.762 | 
4 | CNC[C@H](O)c1ccc(O)c(O)c1.O=C(O)C(O)C(O)C(=O)O [(−)-Epinephrine bitartrate] | 1.696 | 1.654 | 
5 | C[C@H]1C[C@H]2[C@@H]3CCC4=CC(=O)C=C[C@]4(C)[C@@]3(Cl)[C@@H](O)C[C@]2(C)[C@@]1(O)C(=O)CO [Beclomethasone, 9alpha-Chloro-16beta-methyl-1,4-pregnadiene-11beta,17alpha,-21triol-3,20-dione] | 1.861 | 1.996 | significantly over the background reading
6 | Clc1ccccc1C(c1ccccc1)(c1ccccc1)n1ccnc1 [Clotrimazole, 1-(o-Chlorotrityl)-imidazole] | 1.671 | 1.792 | 
7 | CCNC(=O)[C@H]1O[C@@H](n2cnc3c(NCc4ccccc4)ncnc32)[C@H](O)[C@@H]1O [N6-Benzyl-5′-N-ethylcarboxamidoadenosine] | 1.822 | 1.953 | significantly over the background reading
8 | OC[C@H]1O[C@@H](n2cnc3c(Nc4ccccc4)ncnc32)[C@H](O)[C@@H]1O [N6-Phenyladenosine] | 1.942 | 2.095 | 
9 | COc1cccc(-c2cc(=O)c3ccccc3o2)c1N [PD 98,059, 2-(2-Amino-3-methoxyphenyl)-4H-1-benzopyran-4-one] | 1.783 | 1.923 | 
10 | CCCCCCCCCCCCCC(=O)O[C@@H]1[C@@H](C)[C@@]2(O)[C@@H](C=C(CO)C[C@]3(O)C(=O)C(C)=C[C@@H]23)[C@@H]2C(C)(C)[C@]12OC(C)=O [Phorbol 12-myristate 13-acetate] | 3.825 | 4.122 | significantly over the background reading
11 | COc1cc([C@@H]2c3cc4c(cc3[C@H](O)[C@H]3COC(=O)[C@H]23)OCO4)cc(OC)c1OC [Podophyllotoxin] | 2.036 | 1.985 | significantly over the background reading
12 | CC(C)NC[C@H](O)c1ccc(O)c(O)c1.O=C(O)C(O)C(O)C(=O)O [R(−)-Isoproterenol(+)-bitartrate] | 1.996 | 1.943 | significantly over the background reading
13 | COc1cccc(NC(=O)/C=C/c2ccc(Cl)cc2)c1 [SB-366791] | 1.665 | 1.795 | 
14 | Cc1ccc(O)c(N=Nc2ccccc2)n1 [SIB 1757, 6-Methyl-2-(phenylazo)-3-pyridinol] | 2.598 | 2.803 | significantly over the background reading
